US8541476B2, “Compounds for treatment of malignant tumors” (The Trustees of the University of Pennsylvania, priority 2007, dated 2013)

Tests used:
U251 cells = test: MIT assay, radiosensitizing effects of NS-160; assay type: cell-based, human; conditions: U251, 8 hour pretreatment, 0.2 μM, IR dose of 4 Gy
Experimental: The dose-dependent radiosensitizing effects of NS-160 were investigated using an 8 hour pretreatment of 0.02 μM, 0.2 μM, and 2.0 μM NS-160 in U251 cells (FIG. 9). […] Therefore, NS-160 can act as a true radiosensitizer at low μM concentrations.

zebrafish (ZF) embryos = test: Zebrafish embryo development and survival after drug plus IR; assay type: in vivo, Danio rerio
Experimental: ZF were raised in accordance with previously established protocols (McAleer, et al., 2005, J. Radiat. Oncol. Biol. Phys. 61:10-3) at the University of Pennsylvania School of Medicine. Embryos were maintained at 30° C. after transplantation procedures. The age of embryos is indicated as the hours post-fertilization (hpf) and days post-fertilization (dpf) for all experimental data shown. […] Radiat. Oncol. Biol. Phys. 61:10-3) immediately after photography at 24 hpf. […]
The radiosensitizing effects of NS-123 on human cancer cells but not normal cells prompted us to examine the potential of NS-123 in vivo. Zebra fish (ZF) (Danio rerio) embryos provide an unique vertebrate model that is ideal for the screening of therapeutic agents because of their close genetic and physiological homology to upper level vertebrates such as mammals, their rapid embryonic development, optical clarity, and suitability for investigations regarding the effects of radiation and radiosensitizers (Geiger et al., 2006, Cancer Res. 66:8172-8181; McAleer et al., 2005, Int. J. Radiat. Oncol. Biol. Phys. 61:10-13). These features allow the efficient screening of novel drugs and observation of effects on specific organs without the need for euthanization and necroscopy. The ZF embryos were pretreated for 8 hours with 5 μM NS-123 prior to 6 Gy of radiation.

SMILES	radiosensitization (U251 cells)	embryonic development and viability after IR (zebrafish (ZF) embryos; 5 μM NS-123 (1 μM staurosporine) 8 hours before 6 Gy)	morphologic effects in developing ZF with IR (zebrafish (ZF) embryos; drug + IR)
N#Cc1ccc(Br)c([N+](=O)[O-])c1 [NS-160, 4-bromo-3-nitrobenzonitrile]	Radiosensitization was evident		
CN[C@@H]1C[C@H]2O[C@@](C)([C@@H]1OC)n1c3ccccc3c3c4c(c5c6ccccc6n2c5c31)C(=O)NC4 [Staurosporine]		greatly diminished the viability and development	morphologic changes consistent with increased toxicity
